# How the values were obtained:
# [1] = system: Human immunodeficiency virus 2; assay: Antiviral activity against HIV-2 ROD infected in MT4 cells assessed as protection against virus-induced cytopathicity relative to control; assay type: functional; conditions: Human immunodeficiency virus 2, ISOLATE ROD
# [2] = system: Human immunodeficiency virus 1; assay: Antiviral activity against HIV-1 3B infected in MT4 cells assessed as protection against virus-induced cytopathicity relative to control; assay type: functional; conditions: Human immunodeficiency virus 1, 3B
# [3] = Cytotoxicity against mock-infected human MT4 cells assessed as decrease in cell viability by MTT assay; assay type: cell-based
# [4] = system: Aspergillus niger; assay: Antimicrobial activity against Aspergillus niger NCIM 1196 by broth dilution technique; assay type: functional
# [5] = system: Human immunodeficiency virus 1; assay: Antiviral activity against HIV-1 3B infected in MT4 cells assessed as inhibition of virus-induced cytopathicity; assay type: functional, organism-based; conditions: Human immunodeficiency virus 1, 3B
# [6] = system: Escherichia coli; assay: Antimicrobial activity against Escherichia coli NCIM 5051 by broth dilution technique; assay type: functional
# [7] = system: Pseudomonas aeruginosa; assay: Antimicrobial activity against Pseudomonas aeruginosa ATCC 10145 by broth dilution technique; assay type: functional
# [8] = system: Bacillus subtilis; assay: Antimicrobial activity against Bacillus subtilis NCIM 2439 by broth dilution technique; assay type: functional
# [9] = system: Human immunodeficiency virus 2; assay: Antiviral activity against HIV-2 ROD infected in MT4 cells assessed as inhibition of virus-induced cytopathicity; assay type: functional, organism-based; conditions: Human immunodeficiency virus 2, ISOLATE ROD
# [10] = system: Staphylococcus aureus; assay: Antimicrobial activity against Staphylococcus aureus NCIM 2079 by broth dilution technique; assay type: functional
# [11] = system: Candida albicans; assay: Antimicrobial activity against Candida albicans NCIM 3471 by broth dilution technique; assay type: functional
Structure (SMILES),MIC [4] [µg/mL],IC50 [5] [µM],MIC [6] [µg/mL],MIC [7] [µg/mL],MIC [8] [µg/mL],IC50 [9] [µM],MIC [10] [µg/mL],MIC [11] [µg/mL],Emax [1] [%],Emax [2] [%],CC50 [3] [µM],MFC [4] [µg/mL],MBC [6] [µg/mL],MBC [7] [µg/mL],MBC [8] [µg/mL],MBC [10] [µg/mL],MFC [11] [µg/mL]
Cc1cn([C@H]2C[C@H](N=[N+]=[N-])[C@@H](CO)O2)c(=O)[nH]c1=O [ZIDOVUDINE],,,,,,,,,66,90,> 93.5,,,,,,
COc1ccc(C2C3Cc4cc(OC)c(OC)cc4C3=NN2C(N)=O)cc1 (centres undefined),4,> 150,32,64,128,> 150,64,2,6,3,150,8,> 512,> 512,> 512,> 512,2
COc1ccc(C2C3Cc4cc(OC)c(OC)cc4C3=NN2C(=O)Nc2ccc(Cl)cc2)cc1OC (centres undefined),,> 106,,,,> 106,,,9,4,106,,,,,,
COc1cc2c(cc1OC)C1=NN(C(=O)Nc3ccc(C)cc3C)C(c3ccc(F)cc3)C1C2 (centres undefined),,> 198,,,,> 198,,,12,4,198,,,,,,
COc1ccc(C2C3Cc4cc(OC)c(OC)cc4C3=NN2C(=O)Nc2c(C)cccc2C)cc1 (centres undefined),,> 169,,,,> 169,,,6,5,169,,,,,,
COc1cc2c(cc1OC)C1=NN(C(=O)Nc3ccc(Br)cc3)C(c3ccc(F)cc3)C1C2 (centres undefined),,> 108,,,,> 108,,,16,8,108,,,,,,
COc1cc2c(cc1OC)C1=NN(C(=O)Nc3ccc(F)cc3)C(c3ccccc3)C1C2 (centres undefined),,> 68.6,,,,> 68.6,,,7,3,68.6,,,,,,
COc1ccc(C2C3Cc4cc(OC)c(OC)cc4C3=NN2C(=O)Nc2ccc(F)cc2)cc1OC (centres undefined),,> 208,,,,> 208,,,37,11,208,,,,,,
COc1ccc(C2C3Cc4cc(OC)c(OC)cc4C3=NN2C(=O)Nc2ccc(C)cc2C)cc1OC (centres undefined),,> 145,,,,> 145,,,16,16,145,,,,,,
COc1cc2c(cc1OC)C1=NN(C(=O)Nc3ccc(Br)cc3)C(c3ccccc3)C1C2 (centres undefined),,> 86,,,,> 86,,,10,3,86,,,,,,
COc1ccc(C2C3Cc4cc(OC)c(OC)cc4C3=NN2C(=O)Nc2ccc(Br)cc2)cc1OC (centres undefined),,> 150,,,,> 150,,,39,15,150,,,,,,

# The next lines start with results.
MIC [4] [µg/mL],IC50 [5] [µM],MIC [6] [µg/mL],MIC [7] [µg/mL],MIC [8] [µg/mL],IC50 [9] [µM],MIC [10] [µg/mL],MIC [11] [µg/mL],Structure (SMILES),Emax [1] [%],Emax [2] [%],CC50 [3] [µM],MFC [4] [µg/mL],MBC [6] [µg/mL],MBC [7] [µg/mL],MBC [8] [µg/mL],MBC [10] [µg/mL],MFC [11] [µg/mL]
256,> 6.47,16,16,16,> 6.47,16,128,COc1cc2c(cc1OC)C1=NN(C(N)=O)C(c3ccccc3Cl)C1C2 (centres undefined),3,3,6.47,> 512,256,256,256,256,> 512
128,> 6.87,8,16,16,> 6.87,16,64,COc1cc2c(cc1OC)C1=NN(C(N)=S)C(c3ccccc3Cl)C1C2 (centres undefined),1,0,6.87,> 512,128,256,128,128,> 512
,> 11,,,,> 11,,,COc1cc2c(cc1OC)C1=NN(C(=O)Nc3ccc(C)cc3C)C(c3ccccc3Cl)C1C2 (centres undefined),5,1,11,,,,,,
,> 4.83,,,,> 4.83,,,COc1cc2c(cc1OC)C1=NN(C(=O)Nc3ccc(Cl)cc3)C(c3ccncc3)C1C2 (centres undefined),5,4,4.83,,,,,,
,> 29.5,,,,> 29.5,,,COc1cc2c(cc1OC)C1=NN(C(=O)Nc3ccc(F)c(Cl)c3)C(c3ccncc3)C1C2 (centres undefined),2,4,29.5,,,,,,
,> 25.2,,,,> 25.2,,,COc1cc2c(cc1OC)C1=NN(C(=O)Nc3ccc(C)cc3C)C(c3ccncc3)C1C2 (centres undefined),4,1,25.2,,,,,,
,> 31.9,,,,> 31.9,,,COc1cc2c(cc1OC)C1=NN(C(=O)Nc3ccc(F)cc3)C(c3ccncc3)C1C2 (centres undefined),2,2,31.9,,,,,,
